From patent publication US5574062A, “Coumarin derivative and use thereof” (Morinaga Milk Industry Co., Ltd., priority 1993, dated 1996)
pIC50: −log10 of the molar value. Where two headings read alike, the source gives them in different places. Blank lines part the entries; values can stand above or below the compound they belong to.

How the values were obtained:
5-lipoxygenase [1] = molecular target: T1, 5-lipoxygenase (Rattus norvegicus, UniProt P12527); assay: 5-lipoxygenase inhibition assay (RBL-1 supernatant, arachidonic acid, HPLC of 5-HETE); format: biochemical, rat (basophilic leukemia cells RBL-1, ATCC CRL1378)
T1 construct: host or cells: RBL-1 (rat basophilic leukemia cells)
T1 sequence (P12527 1-673): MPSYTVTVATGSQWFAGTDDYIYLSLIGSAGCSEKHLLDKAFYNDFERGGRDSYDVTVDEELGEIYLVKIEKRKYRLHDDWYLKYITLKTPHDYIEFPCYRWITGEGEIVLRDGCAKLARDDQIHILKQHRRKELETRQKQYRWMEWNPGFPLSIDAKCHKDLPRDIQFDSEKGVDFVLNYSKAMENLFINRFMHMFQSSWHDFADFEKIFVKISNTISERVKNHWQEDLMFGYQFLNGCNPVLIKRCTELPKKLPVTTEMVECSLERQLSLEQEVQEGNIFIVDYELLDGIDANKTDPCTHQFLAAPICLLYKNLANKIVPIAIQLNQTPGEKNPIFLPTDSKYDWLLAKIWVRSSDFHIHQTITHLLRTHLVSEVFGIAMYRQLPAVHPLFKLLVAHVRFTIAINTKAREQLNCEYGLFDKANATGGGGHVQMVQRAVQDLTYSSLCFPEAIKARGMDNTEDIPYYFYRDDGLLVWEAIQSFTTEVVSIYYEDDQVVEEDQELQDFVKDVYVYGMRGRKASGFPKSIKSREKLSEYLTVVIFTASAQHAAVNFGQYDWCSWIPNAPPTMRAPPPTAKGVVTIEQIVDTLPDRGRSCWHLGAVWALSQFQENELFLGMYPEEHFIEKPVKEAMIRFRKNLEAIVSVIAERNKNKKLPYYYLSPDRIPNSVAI
Protocol: Rat basophilic leukemia cells (RBL-1, ATCC CRL1378) were cultured in Dulbecco modified Eagle's medium containing 10% new-born bovine serum.
Cultured cells were collected and washed twice with a 50 mM Tris-buffered saline (containing 154 mM sodium chloride, pH: 7.4, hereinafter described as TBS). The cell suspension (4×10^7 cells/ml) was then sonicated and centrifuged at 10,000×g for 10 minutes.
The resultant supernatant was used to prepare an assay solution.
To an aliquot (15 μl) of the enzyme solution (40 mU/ml equivalent) was added 185 μl of TBS, 50 μl of a 2 mM adenosine triphosphate in TBS, 50 μl of a 12 mM calcium chloride in TBS, 1 μl of a 3 mM indomethacin in ethanol solution, 1 μl of an aqueous 300 mM reduced glutathione solution, and 3 μl of varied concentrated test compounds solution in ethanol. The resultant mixture was incubated at 37° C. for 5 minutes. Subsequently, 3 μl of a 2.5 mM arachidonic acid solution in ethanol was added to incubate the mixture for 2 minutes at 37° C. The reaction was ceased by the addition of 600 μl of methanol. After being centrifuged at 10,000×g for 5 minutes, 5-hydroxyeicosatetraenoic acid recovered in the supernatant was separated with a reverse phase high-performance liquid chromatography equipped with a C-18 column and measured the absorption of diene at 234 nm to quantify the activity of the enzyme.
Using the compounds of the present invention prepared in the same manner as in Examples 1-30, and Examples 33-36 as test samples and known baicalein (purchased from Wako Junyaku Kogyo) represented by the following formula 30 as a control: [drawing 34] the tests were performed for dose dependent inhibition to estimate IC50 values
It was prepared in the same method as in Test Example 2.
They were measured in the same method as in Test Example 2.

12-lipoxygenase [2] = molecular target: T2, 12-lipoxygenase (Rattus norvegicus, UniProt F1LQ70); assay: 12-lipoxygenase inhibition assay (rat platelet supernatant, arachidonic acid, HPLC of 12-HETE); format: biochemical, Sprague Dawley male rat (platelets)
T2 construct: The platelets were then sonicated at 4° C. and centrifuged at 100,000×g for 30 minutes to obtain a supernatant as a 12-lipoxygenase enzyme solution; from tissue; host or cells: Sprague Dawley rat platelets (from aortic blood), sonicated, 100,000 x g supernatant
T2 sequence (F1LQ70 1-663): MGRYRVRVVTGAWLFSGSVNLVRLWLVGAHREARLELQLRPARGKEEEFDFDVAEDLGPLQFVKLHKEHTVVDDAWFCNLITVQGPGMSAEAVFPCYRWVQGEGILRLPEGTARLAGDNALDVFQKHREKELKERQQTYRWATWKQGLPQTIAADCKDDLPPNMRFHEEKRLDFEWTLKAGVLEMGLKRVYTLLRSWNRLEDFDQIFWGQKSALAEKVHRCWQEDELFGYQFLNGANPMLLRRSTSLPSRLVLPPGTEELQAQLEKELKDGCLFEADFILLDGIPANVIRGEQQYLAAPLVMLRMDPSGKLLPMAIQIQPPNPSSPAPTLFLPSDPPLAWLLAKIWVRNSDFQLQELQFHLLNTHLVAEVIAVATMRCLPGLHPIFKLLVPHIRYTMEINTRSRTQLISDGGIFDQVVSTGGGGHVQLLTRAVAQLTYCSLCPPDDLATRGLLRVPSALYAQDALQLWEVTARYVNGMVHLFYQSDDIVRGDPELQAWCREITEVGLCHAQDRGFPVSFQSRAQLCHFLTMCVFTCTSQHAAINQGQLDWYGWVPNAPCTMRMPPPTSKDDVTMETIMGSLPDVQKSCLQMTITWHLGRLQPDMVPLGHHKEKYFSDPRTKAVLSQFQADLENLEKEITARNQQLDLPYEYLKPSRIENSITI
Protocol: (§1) A Sprague Dawley male rat was anesthetized with ether and bled from abdominal aorta using a syringe filled with about one-tenth volume of 3.8% sodium citrate. Blood was centrifuged at 180×g for 15 minutes at room temperature to pellet sanguineous platelet blood plasma. The resultant supernatant was again centrifuged at 1800×g for 10 minutes at 4° C. The pelleted platelets were rinsed twice with a washing buffer (50 mM Tris-hydrochloric acid buffer containing 154 mM sodium chloride and 2 mM EDTA, pH: 7.4). The platelets were then suspended in one-twentieth volume of a resuspension buffer (50 mM Tris-hydrochloric acid buffer containing 154 mM sodium chloride and 5.5 mM glucose, pH: 7.4). The platelets were then sonicated at 4° C. and centrifuged at 100,000×g for 30 minutes to obtain a supernatant as a 12-lipoxygenase enzyme solution.
(§2) The enzyme solution described above was diluted with the resuspension buffer above mentioned to prepare an assay solution so as to include about 2 mU/ml of 12-lipoxygenase. To an aliquot (300 μl) of the assay solution was added 1 μl of a 3 mM indomethacin-ethanol solution, 1 μl of an aqueous 300 mM reduced-glutathione solution, and 3 μl of varied concentrated test compounds solution in ethanol. The resultant mixture was incubated at 37° C. for 5 minutes. Subsequently, 3 μl of a 2.5 mM arachidonic acid solution in ethanol was added to incubate with for another 5 minutes at 37° C., then the reaction was ceased by the addition of 600 μl of methanol. After being centrifuged at 10,000×g for 5 minutes, 12-hydroxyeicosatetraenoic acid recovered in the supernatant was separated with a reverse phase high-performance liquid chromatography equipped with a C-18 column and measured the absorption of diene at 234 nm to quantify the activity of 12-lipoxygenase.
(§3) As test compounds were used the compounds of the present invention prepared in the same methods as in Example 4, Example 5 and Example 8 and the compounds prepared in the same methods as in Comparative Examples 1-5, and as a control was used esculetin (purchased from Tokyo Kasei), a known compound represented by the following formula: [drawing 33] and the test was conducted at varied concentrations.
(§4) The enzyme solution was prepared according to the same manner as in Test Example 1.
(§5) The inhibition assay was performed according to the same method as described in Test Example 1 except that the same samples used in measurement of the 5-lipoxygensase activity were used to estimate IC50 values. […]
(§6) They were measured in the same method as in Test Example 1.

12-lipoxygenase [3] = conditions: known compound used as lead; cited from earlier work
12-lipoxygenase [4] = conditions: same concentration (10 uM), platelets; cited from earlier work
5-lipoxygenase [5] = conditions: 10 uM, cited from earlier work
12-lipoxygenase [6] = assay: 12-lipoxygenase inhibition assay (rat platelet supernatant, arachidonic acid, HPLC of 12-HETE); format: biochemical, Sprague Dawley male rat (platelets); conditions: comparative tests by the inventors
Protocol: as §1, §2, §3, §4, §5, §6

[7] = system: 12-lipoxygenase of mastocytoma cells; conditions: literature; cited from earlier work
[8] = system: esterases present in the enzyme solution; assay: Formation of deacylated compounds by esterases in rat platelet enzyme solution (HPLC); format: in vitro ADME, rat (platelets); conditions: resuspension buffer instead of the enzyme solution
Protocol: (§7) The test was performed to examine whether or not deacylated compounds would be formed due to esterases present in the enzyme solution when the compounds in the third embodiment according to the present invention were treated with the same enzyme solution as in Test Example 3.
(§8) The enzyme solution was prepared according to the same procedure as described in Test Example 1.
(§9) One ml of the above mentioned enzyme solution was diluted with 11 ml of a resuspension buffer. To an aliquot (300 μl) of this enzyme solution was added 3 μl of a 1.0×10^-3 M test compound solution in dimethyl sulfoxide. The mixture was incubated at 37° C. for an indicated time, then the reaction was ceased by the addition of 1 ml of acetonitrile. Twenty μl of the above mixture was subjected to reverse phase high-performance liquid chromatography equipped with a C-18 column to quantify the amount of deacylated products. As a control, a test using 300 μl of the resuspension buffer solution mentioned above instead of the enzyme solution was also performed.
(§10) Conditions of reverse phase high-performance liquid chromatography:
(§11) Column: Superspher RP-18(e) (purchased from Merck), 4.0 mm in diameter, 125 mm in length
(§12) Flow velocity: 1.0 ml/minute
(§13) Eluent: Acetonitrile containing 50 mM NaClO4 and 50 mM orthophosphate-water (55:45)
(§14) Column temperature: 30° C.
(§15) Calibration: Absorbance of 280 nm
(§16) The results of the test upon the compounds of Example 40 (Formula 43b) and Example 57 (Formula 74b) of the compounds according to the present invention will be shown. Since both the compounds of Example 40 (Formula 43b) and Example 57 (Formula 74b) are thought to be converted into the compound of Referential Example 8 (Formula 34b) through deacylation, the retention time of the compound of Referential Example 8 was checked strictly under the employed conditions with reverse phase high-performanceliquid chromatography mentioned above (retention time: 2.49 minutes) and a calibration curve of the compound was made using authentic sample of Referential Example 8.

[9] = as above; format: in vitro ADME, rat (platelets); conditions: rat, platelet enzyme solution, 37° C., enzyme solution, read-out: conversion ratio to Formula 34b; for metabolised at 0.5 h, 10 µM: reaction time 30 minute; for metabolised at 1 h, 10 µM: reaction time 60 minute
Protocol: as §7, §8, §9, §10, §11, §12, §13, §14, §15, §16

[10] = 12-Lipoxygenase inhibiting activity IC50 value, Test Example 5, Table 22
[11] = Test Example 2, Table 2, read-out: IC50 value of 5-lipoxygenase
[12] = Test Example 2, Table 2, read-out: IC50 value of 12-lipoxygenase

Structure (SMILES): O=c1cc(-c2ccccc2)oc2cc(O)c(O)c(O)c12 [Baicalein, 5,6,7-trihydroxyflavone, reference compound]
pIC50 (5-lipoxygenase [1]): 5.62
pIC50 (5-lipoxygenase [1]; read-out: IC50 value of 5-lipoxygenase, Test Example 2, Table 2): 5.62
pIC50 (12-lipoxygenase [2]; [10]): 7.38
pIC50 (12-lipoxygenase [2]; 12-lipoxygenase inhibiting activities of deacylated compounds (IC50 values), Test Example 3, Table 11, value belongs to the deacylated compound): 7.38
pIC50 (12-lipoxygenase [2]; IC50 value of 12-lipoxygenase, Test Example 2, Table 2): 7.38
pIC50 (12-lipoxygenase [2]; read-out: 12-Lipoxygenase inhibiting activity IC50 value, Test Example 5, Table 22): 7.38
12-lipoxygenase inhibitory activity (in words) (12-lipoxygenase [3]): relatively strong 12-lipoxygenase inhibitory activity
selectivity (in words) (12-lipoxygenase [3]): relatively high selectivity

Structure (SMILES): Oc1ccc(C2COc3cc(O)c(O)cc3C2)cc1 (stereo not drawn) [compound of 12), 4',6,7-trihydroxyisoflavan]
inhibition of formation of 12-lipoxygenase metabolic products (12-lipoxygenase [4]): 25%
inhibition of formation of 5-lipoxygenase metabolic products (5-lipoxygenase [5]; human peripheral leukocytes): completely
selectivity between 5-lipoxygenase and 12-lipoxygenase (in words) (5-lipoxygenase [5]; literature, leukocytes vs. platelets): selective toward 5-lipoxygenase

Structure (SMILES): O=c1ccc2cc(O)c(O)cc2o1 [Esculetin, 6,7-dihydroxycoumarin, reference compound]
pIC50 (5-lipoxygenase [1]): 5.37
12-lipoxygenase inhibitory activity (in words) (12-lipoxygenase [2]): considerably weaker inhibitory effect on 12-lipoxygenase than the compounds of the present invention
pIC50 (12-lipoxygenase [2]; [10]): 5.36
pIC50 (12-lipoxygenase [2]; 12-lipoxygenase IC50 value, Test Example 1, Table 1 and text): 5.36
selectivity between 12-lipoxygenase and 5-lipoxygenase (in words) (12-lipoxygenase [6]): no selectivity was found
pIC50 [7]: 5.60

metabolised at 0.5 h, 10 µM [9]: 42.4%
metabolised at 1 h, 10 µM [9]: 60.4%
Structure (SMILES): CCC(=O)Oc1cc2cc(-c3cccc(Cl)c3)c(=O)oc2cc1OC(=O)CC [Example 57]
formation of deacylated compound in buffer control [8]: no deacylated compound (Formula 34b) was formed

pIC50 (5-lipoxygenase [1]; text of Test Example 1, not shown in Table 1, read-out: 5-lipoxygenase inhibitory activity IC50 value): 6.19
pIC50 (12-lipoxygenase [2]; Test Example 1, Table 1 and text, read-out: 12-lipoxygenase IC50 value): 6.59
Structure (SMILES): O=c1cc(-c2ccccc2)c2ccc(O)c(O)c2o1 [Comp. Example 3, reference compound]
selectivity between 12-lipoxygenase and 5-lipoxygenase (in words) (12-lipoxygenase [6]): no selectivity was found

pIC50 (5-lipoxygenase [1]; [11]): 6.82
pIC50 (12-lipoxygenase [2]; [12]): 8.28
pIC50 (12-lipoxygenase [2]; Test Example 3, Table 11, value belongs to the deacylated compound, read-out: 12-lipoxygenase inhibiting activities of deacylated compounds (IC50 values)): 8.28
Structure (SMILES): O=c1oc2cc(O)c(O)cc2cc1-c1cc(Br)cs1 [Example 34, 3-(4-bromothiophen-2-yl)-6,7-dihydroxycoumarin]

pIC50 (5-lipoxygenase [1]; [11]): 6.18
pIC50 (12-lipoxygenase [2]; [12]): 7.57
Structure (SMILES): COc1ccc(-c2cc3ccc(O)c(O)c3oc2=O)cc1 [Example 27, 3-(4-methoxyphenyl)-7,8-dihydroxycoumarin]

pIC50 (5-lipoxygenase [1]; [11]): 6.57
pIC50 (12-lipoxygenase [2]; [12]): 7.89
Structure (SMILES): O=c1oc2cc(O)c(O)cc2cc1-c1ccc(C(F)(F)F)cc1 [Example 14, 3-(4-trifluoromethylphenyl)-6,7-dihydroxycoumarin]

metabolised at 0.5 h, 10 µM [9]: 70.7%
metabolised at 1 h, 10 µM [9]: 72.8%
Structure (SMILES): CC(=O)Oc1cc2cc(-c3cccc(Cl)c3)c(=O)oc2cc1OC(C)=O [Example 40]
formation of deacylated compound in buffer control [8]: no deacylated compound (Formula 34b) was formed
